We go through 18 molecules from US20230348424A1, “HETEROCYCLIC COMPOUNDS AND METHODS OF USE” (Schrödinger, Inc., priority 2022, published 2023).

The structures appear in SMILES notation. pIC50, pKd: −log10 of the molar value.

As a reminder, the pKd is −log10 of the Kd, conventionally taken in molar units. Usually pIC50 stands for the IC50 on a negative log10 scale, so that one unit is a factor of ten. Low readings indicate a large IC50, high ones a small IC50.

One assay deals with human SOS1 (Homo sapiens (Human), UniProt Q07889). The experiment in a line: Surface Plasmon Resonance (SPR) SOS1 Binding Assay. The settings on record: biotinylated SOS1 (res. 564-1049), Biacore 8K, 25° C., kinetic or steady state fit, 1:1 binding; read-out: hSOS1 KD. A digest of the protocol:
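Biotinylated Avi-tagged human SOS1 (res. 564-1049) captured on streptavidin chip (~3,000 RU); compounds injected 60 s, dissociation 600 s, at 25° C in Tris pH 8.0 buffer with 5% DMSO. Reference- and blank-subtracted; KD from kinetic or steady-state 1:1 binding fit.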

For assay [1], the target named is SOS1:KRAS (G12C) interaction (Homo sapiens (Human), UniProt Q07889). Kind of assay: SOS1 KRas(G12C) FRET Assay. The class given is binding. Particulars: 0.5 nM His10-SOS1 (res. 564-1049), 2.5 nM GST-KRAS G12C (res. 1-169), 2 hrs at RT. A digest of the protocol: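 GST-KRAS G12C (res. 1-169) at 2.5 nM and His10-SOS1 (res. 564-1049) at 0.5 nM, final, in PBS with 0.1% BSA, 5 mM MgCl2, 100 mM KF, 5 mM DTT and 0.5% DMSO. After 2 h at RT, FRET read at 665/615 nm and normalized to DMSO and no-SOS1 controls. IC50 by non-linear regression.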
Sequence of SOS1:KRAS (G12C) interaction (Q07889 564-1049, stated change not applied): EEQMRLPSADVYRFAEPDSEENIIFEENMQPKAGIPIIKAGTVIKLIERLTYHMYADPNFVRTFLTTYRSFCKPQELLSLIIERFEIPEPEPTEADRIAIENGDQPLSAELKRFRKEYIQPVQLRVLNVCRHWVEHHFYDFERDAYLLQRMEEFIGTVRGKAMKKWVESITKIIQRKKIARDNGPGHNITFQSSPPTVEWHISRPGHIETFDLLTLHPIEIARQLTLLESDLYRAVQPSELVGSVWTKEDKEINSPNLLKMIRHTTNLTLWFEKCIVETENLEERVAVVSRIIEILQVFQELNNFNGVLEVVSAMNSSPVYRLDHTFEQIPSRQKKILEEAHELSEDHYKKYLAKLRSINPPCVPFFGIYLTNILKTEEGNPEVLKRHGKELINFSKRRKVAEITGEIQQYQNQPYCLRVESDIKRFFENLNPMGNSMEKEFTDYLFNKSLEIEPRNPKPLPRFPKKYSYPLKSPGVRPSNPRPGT

Sequence of human SOS1 (Q07889 564-1049): as the sequence (Q07889 564-1049, stated change not applied) above

On to `C[C@@H](NC(=O)c1cn(C2CCOC(C)(C)C2)c(=O)cc1N[C@H]1[C@@H]2CN(C)C[C@@H]21)c1cccc(C(F)F)c1F` (stereo partly drawn) [Example 122, N-((R)-1-(3-(difluoromethyl)-2-fluorophenyl)ethyl)-1-(2,2-dimethyltetrahydro-2H-pyran-4-yl)-4-(((1R,5S,6s)-3-methyl-3-azabicyclo[3.1.0]hexan-6-yl)amino)-6-oxo-1,6-dihydropyridine-3-carboxamide], for which the pKd at human SOS1 was 8.05. For the same molecule, the pIC50 in assay [1] was 7.76.
On the same counts, the results for `C[C@@H](NC(=O)c1cn(C2CCC(F)(F)CC2)c(=O)cc1N[C@H]1[C@@H]2CN(C)C[C@@H]21)c1cccc(C(F)F)c1F` [Example 123, 1-(4,4-difluorocyclohexyl)-N-((R)-1-(3-(difluoromethyl)-2-fluorophenyl)ethyl)-4-(((1R,5S,6s)-3-methyl-3-azabicyclo[3.1.0]hexan-6-yl)amino)-6-oxo-1,6-dihydropyridine-3-carboxamide] are 7.82 and 7.64.
Regarding `C[C@@H](NC(=O)c1cn(C2(C(F)F)CC2)c(=O)cc1N[C@H]1C[C@@H]2CN(C)C[C@@H]2C1)c1cccc(C(F)F)c1F` [Example 125, N-((R)-1-(3-(difluoromethyl)-2-fluorophenyl)ethyl)-1-(1-(difluoromethyl)cyclopropyl)-4-(((3aR,5s,6aS)-2-methyloctahydrocyclopenta[c]pyrrol-5-yl)amino)-6-oxo-1,6-dihydropyridine-3-carboxamide], at human SOS1, the pKd is 7.89. This molecule also had a pIC50 in assay [1] of 7.56.
On the same counts, the results for `C[C@@H](NC(=O)c1cn(C2CC3(C2)CC(F)(F)C3)c(=O)cc1N[C@@H]1CCN(C)C[C@@H]1F)c1cccc(C(F)F)c1F` [Example 126, N-((R)-1-(3-(difluoromethyl)-2-fluorophenyl)ethyl)-1-(6,6-difluorospiro[3 .3]heptan-2-yl)-4-(((3S,4R)-3-fluoro-1-methylpiperidin-4-yl)amino)-6-oxo-1,6-dihydropyridine-3-carboxamide] are 8.70 and 8.36.
Turning to `C[C@@H](NC(=O)c1cn(C2CC3(C2)CC(F)(F)C3)c(=O)cc1N[C@H]1CCN(C)C[C@H]1F)c1cccc(C(F)F)c1F` [Example 127, N-((R)-1-(3-(difluoromethyl)-2-fluorophenyl)ethyl)-1-(6,6-difluorospiro[3 .3]heptan-2-yl)-4-(((3R,4S)-3-fluoro-1-methylpiperidin-4-yl)amino)-6-oxo-1,6-dihydropyridine-3-carboxamide], the pKd on human SOS1 is 8.52. In assay [1], this molecule showed a pIC50 of 8.52.
In the case of `C[C@@H](NC(=O)c1cn([C@@H]2CCOC[C@H]2F)c(=O)cc1N[C@H]1[C@@H]2CN(C)C[C@@H]21)c1cccc(C(F)F)c1F` [Example 128, N-((R)-1-(3-(difluoromethyl)-2-fluorophenyl)ethyl)-1-((3S,4R)-3-fluorotetrahydro-2H-pyran-4-yl)-4-(((1R,5S,6s)-3-methyl-3-azabicyclo[3.1.0]hexan-6-yl)amino)-6-oxo-1,6-dihydropyridine-3-carboxamide], the pKd at human SOS1 was 8.52. In addition, the pIC50 in assay [1] was 8.09.
Turning to `C[C@@H](NC(=O)c1cn([C@H]2CCOC[C@@H]2F)c(=O)cc1N[C@H]1[C@@H]2CN(C)C[C@@H]21)c1cccc(C(F)F)c1F` [Example 129, N-((R)-1-(3-(difluoromethyl)-2-fluorophenyl)ethyl)-1-((3R,4S)-3-fluorotetrahydro-2H-pyran-4-yl)-4-(((1R,5S,6s)-3-methyl-3-azabicyclo[3.1.0]hexan-6-yl)amino)-6-oxo-1,6-dihydropyridine-3-carboxamide], at human SOS1, the pKd is 8.10. The molecule also gave a pIC50 in assay [1] of 7.60.
For `C[C@@H](NC(=O)c1cn(C2(C(F)F)CC2)c(=O)cc1N[C@H]1[C@@H]2CN(C)C[C@@H]21)c1cccc(C(F)(F)F)c1F` [Example 130, 1-(1-(difluoromethyl)cyclopropyl)-N-((R)-1-(2-fluoro-3-(trifluoromethyl)phenyl)ethyl)-4-(((1R,5S,6s)-3-methyl-3-azabicyclo[3.1.0]hexan-6-yl)amino)-6-oxo-1,6-dihydropyridine-3-carboxamide], on human SOS1, the pKd was 7.64. In assay [1], this molecule had a pIC50 of 7.57.
On the same counts, the results for `C[C@@H](NC(=O)c1cn(C2(C(F)F)CCC2)c(=O)cc1N[C@H]1[C@@H]2CN(C)C[C@@H]21)c1cccc(C(F)F)c1F` [Example 131, N-((R)-1-(3-(difluoromethyl)-2-fluorophenyl)ethyl)-1-(1-(difluoromethyl)cyclobuty 1)-4-(((1R,5S,6s)-3-methyl-3-azabicyclo[3.1.0]hexan-6-yl)amino)-6-oxo-1,6-dihydropyridine-3-carboxamide] are 7.77 and 7.66.
Regarding `C[C@@H](NC(=O)c1cn(C23CCC(CC2)C3)c(=O)cc1N[C@H]1[C@@H]2CN(C)C[C@@H]21)c1cccc(C(F)F)c1F` [Example 132, 1-(bicyclo[2.2.1]heptan-1-yl)-N-((R)-1-(3-(difluoromethyl)-2-fluorophenyl)ethyl)-4-(((1R,5S,6s)-3-methyl-3-azabicyclo[3.1.0]hexan-6-yl)amino)-6-oxo-1,6-dihydropyridine-3-carboxamide], at human SOS1, the pKd is 8.10. In assay [1], the pIC50 is 7.99.
On the same counts, the results for `C[C@@H](NC(=O)c1cn(C23CC(C2)C3)c(=O)cc1N[C@H]1C[C@@H](N(C)C)C1)c1cccc(C(F)F)c1F` [Example 133, 1-(bicyclo[1.1.1]pentan-1-yl)-N-((R)-1-(3-(difluoromethyl)-2-fluorophenyl)ethyl)-4-(((1s,3S)-3-(dimethylamino)cyclobuty 1)amino)-6-oxo-1,6-dihydropyridine-3-carboxamide] are 7.96 and 7.63.
Consider `C[C@@H](NC(=O)c1cn(C23CC(F)(C2)C3)c(=O)cc1NC1[C@@H]2CC[C@H]1CN(C)C2)c1cccc(C(F)F)c1F` (stereo partly drawn) [Example 136, N-((R)-1-(3-(difluoromethyl)-2-fluorophenyl)ethyl)-1-(3-fluorobicyclo[1.1.1]pentan-1-yl)-4-(((1R,SS,8s)-3-methyl-3-azabicyclo[3.2.1]octan-8-yl)amino)-6-oxo-1,6-dihydropyridine-3-carboxamide], for which the pKd at human SOS1 is 8.52. Also, the pIC50 in assay [1] was 8.22.
On the same counts, the results for `C[C@@H](NC(=O)c1cn(C23CC(F)(C2)C3)c(=O)cc1NC1[C@@H]2CC[C@H]1CN(C)C2)c1cccc(C(F)F)c1F` (stereo partly drawn) [Example 137, N-((R)-1-(3-(difluoromethyl)-2-fluorophenyl)ethyl)-1-(3-fluorobicyclo[1.1.1]pentan-1-yl)-4-(((1R,5S,8r)-3-methyl-3-azabicyclo[3.2.1]octan-8-yl)amino)-6-oxo-1,6-dihydropyridine-3-carboxamide] are 7.57 and 7.45.
Turning to `C[C@@H](NC(=O)c1cn(C23CC(F)(C2)C3)c(=O)cc1N[C@H]1CCN(C)C[C@H]1F)c1cccc(C(F)F)c1F` [Example 142, N-((R)-1-(3-(difluoromethyl)-2-fluorophenyl)ethyl)-4-(((3R,4S)-3-fluoro-1-methylpiperidin-4-yl)amino)-1-(3-fluorobicyclo[1.1.1]pentan-1-yl)-6-oxo-1,6-dihydropyridine-3-carboxamide], on human SOS1, the pKd was 8.40. This molecule also showed a pIC50 in assay [1] of 8.31.
On the same counts, the results for `C[C@@H](NC(=O)c1cn(C23CC(F)(C2)C3)c(=O)cc1N[C@@H]1CCN(C)C[C@@H]1F)c1cccc(C(F)F)c1F` [Example 143, N-((R)-1-(3-(difluoromethyl)-2-fluorophenyl)ethyl)-4-(((3S,4R)-3-fluoro-1-methylpiperidin-4-yl)amino)-1-(3-fluorobicyclo[1.1.1]pentan-1-yl)-6-oxo-1,6-dihydropyridine-3-carboxamide] are 8.52 and 8.42.
Consider `C[C@@H](NC(=O)c1cn([C@H]2CCC2(F)F)c(=O)cc1NCC1(F)CN(C)C1)c1cccc(C(F)F)c1F` [Example 146, 1-((S)-2,2-difluorocyclobutyl)-N-((R)-1-(3-(difluoromethyl)-2-fluorophenyl)ethyl)-4-(((3-fluoro-1-methylazetidin-3-yl)methyl)amino)-6-oxo-1,6-dihydropyridine-3-carboxamide], for which the pKd on human SOS1 is 8.05. Besides, the pIC50 in assay [1] is 8.27.
As for `C[C@@H](NC(=O)c1cn([C@@H]2CCC2(F)F)c(=O)cc1NCC1(F)CN(C)C1)c1cccc(C(F)F)c1F` [Example 147, 1-((R)-2,2-difluorocyclobutyl)-N-((R)-1-(3-(difluoromethyl)-2-fluorophenyl)ethyl)-4-(((3-fluoro-1-methylazetidin-3-yl)methyl)amino)-6-oxo-1,6-dihydropyridine-3-carboxamide], the pKd on human SOS1 is 7.14. In addition, the pIC50 in assay [1] is 7.35.
With `C[C@@H](NC(=O)c1cn([C@]2(C)CCOC2)c(=O)cc1N[C@H]1[C@@H]2CN(C)C[C@@H]21)c1cccc(C(F)F)c1F` [Example 152, N-((R)-1-(3-(difluoromethyl)-2-fluorophenyl)ethyl)-4-(((1R,5S,6s)-3-methyl-3-azabicyclo[3.1.0]hexan-6-yl)amino)-1-((R)-3-methyltetrahydrofuran-3-yl)-6-oxo-1,6-dihydropyridine-3-carboxamide], the negative-log Kd (pKd) at human SOS1 is 8.40. In addition, the pIC50 in assay [1] is 8.13.
